# Results taken from ChEMBL document CHEMBL6092158, “Green synthesis of neuroprotective spirocyclic chalcone derivatives and their role in protecting against traumatic optic nerve injury” (Eur J Med Chem, 2024).
# Active and inactive are the calls of the source. No cut-off for these calls is given here.
# How the values were obtained:
# R28 [1] = assay: Cytoprotective activity against hydrogen peroxide-induced cytotoxicity in rat R28 cells assessed as increase in cell viability at 10 uM preincubated for 24 hrs followed by incubation with H2O2 for 24 hrs by MTT assay; format: functional, cell-based
# R28 [2] = assay: Cytoprotective activity against glutamate-induced cytotoxicity in rat R28 cells assessed as increase in cell viability at 10 uM incubated for 24 hrs in presence of glutamate by MTT assay; format: functional, cell-based
Structure (SMILES),Activity (R28 [1]),Activity (R28 [2])
CN1C[C@H](c2ccc(O)c(O)c2)[C@@H](C(=O)c2ccc(OC(F)(F)F)cc2)[C@]12C(=O)Nc1ccccc12,Active,Active
CN1C[C@H](c2ccc(O)c(O)c2)[C@@H](C(=O)c2ccc(F)cc2)[C@]12C(=O)Nc1ccccc12,Active,Active
CN1C[C@H](c2ccc(O)c(O)c2)[C@@H](C(=O)c2ccc(Br)cc2F)[C@]12C(=O)Nc1ccccc12,Active,Active
COc1cc(C(=O)[C@@H]2[C@@H](c3ccc(O)c(O)c3)CN(C)[C@@]23C(=O)Nc2ccccc23)ccc1O,Active,Active
CN1C[C@H](c2ccc(O)c(O)c2)[C@@H](C(=O)c2ccccc2)[C@]12C(=O)Nc1ccccc12,Active,Active
COc1ccc(C(=O)[C@@H]2[C@@H](c3ccc(O)c(O)c3)CN(C)[C@@]23C(=O)Nc2ccccc23)cc1OC,Active,Active
CCCc1ccc(C(=O)[C@@H]2[C@@H](c3ccc(O)c(O)c3)CN(C)[C@@]23C(=O)Nc2ccccc23)cc1,Active,Active
CN1C[C@H](c2ccc(O)c(O)c2)[C@@H](C(=O)c2ccccc2C(F)(F)F)[C@]12C(=O)Nc1ccccc12,inactive,inactive
CN1C[C@H](c2ccc(O)c(O)c2)[C@@H](C(=O)c2ccc(O)cc2)[C@]12C(=O)Nc1ccccc12,Active,Active
CN1C[C@H](c2ccc(O)c(O)c2)[C@@H](C(=O)c2cccc(Cl)c2)[C@]12C(=O)Nc1ccccc12,Active,Active
CN1C[C@H](c2ccc(O)c(O)c2)[C@@H](C(=O)c2ccc(Cl)cc2)[C@]12C(=O)Nc1ccccc12,Active,Active
